{"source": "patent US7572777B2", "about": "“Florfenicol prodrug having improved water solubility” (Schering-Plough Animal Health Corp., priority 2003, dated 2009)", "key": {"[1]": {"assay": "Conversion of florfenicol phosphate to florfenicol in cattle (plasma florfenicol after iv dosing)", "format": "in vivo", "details": "calves, approximately 10 mg/kg, HPLC-MS/MS (FIG. 2)", "text": "[…]. Each symbol denotes the data from a different calf."}, "[2]": {"assay": "Conversion of florfenicol phosphate to florfenicol in swine (plasma florfenicol after iv dosing)", "format": "in vivo", "details": "pigs, approximately 6.7 mg/kg (FIG. 4)", "experimental": "FIG. 4 is a graphic presentation of florfenicol concentrations in the plasma of pigs following intravenous administration of florfenicol phosphate ester. The plot depicts florfenicol concentrations detected in the plasma of three pigs following intravenous administration of the florfenicol phosphate ester prodrug at a dose of approximately 6.7 mg/kg of body weight, which equates to a florfenicol equivalent dose of 5 mg/kg. Each symbol denotes the data from a different pig.\n[…]. Plasma samples were collected after drug administration and analyzed for concentrations of florfenicol. […]."}, "physchem": {"assay": "physchem", "format": "physicochemical", "experimental": "Successive aliquots of solid phosphate ester prodrug (sodium salt) were added to water with agitation. Addition was continued until mixing became difficult due to high viscosity, at which point all of the prodrug remained in solution."}, "[3]": {"assay": "Conversion of florfenicol phosphate to florfenicol in dogs (plasma florfenicol after iv dosing)", "format": "in vivo", "details": "approximately 11 mg/kg, HPLC-MS/MS (FIG. 3)", "experimental": ". The plot depicts florfenicol concentrations in the plasma of three dogs following intravenous administration of the florfenicol phosphate ester prodrug at a dose of approximately 11.1 mg/kg of body weight, which equates to a florfenicol equivalent dose of 8.3 mg/kg. Each symbol denotes the data from a different dog."}, "[4]": {"assay": "Stability of the phosphate prodrug in aqueous solutions", "format": "physicochemical", "details": "for % Compound B (cyclic phosphate formed) / % Compound C (free florfenicol formed) / % Compound A: 40° C., 30 days under nitrogen; for % Compound A: initial purity 98.3%", "text": "Although relatively stable in aqueous solutions, over prolonged periods of time the phosphate ester of florfenicol (Formula I) undergoes slow degradation resulting in the release of free florfenicol as well as the formation of cyclic phosphate diester. The formation of the cyclic diester occurs through the phosphate anion displacement of fluorine and requires participation of the phosphate di-anion, which is much more nucleophilic than the corresponding mono-anion. Therefore, the rate of formation of the cyclic diester is largely dependent on the pH of the solution or more generally, on the degree of the phosphate ionization. […]. However, even such small changes of pH result in noticeable differences of the amount of the cyclic phosphate diester formed."}, "[5]": {"assay": "Conversion of prodrug to florfenicol in rat serum", "details": "37° C., after 4 hours (FIG. 1)"}, "[6]": {"assay": "Conversion of prodrug to florfenicol in bovine serum", "details": "37° C., after 4 hours (FIG. 1)"}, "[7]": {"details": "listed as Florfenicol phosphate"}, "[8]": {"details": "pH 4.48 adjusted with ethanolamine, 300 mg/mL active florfenicol"}, "[9]": {"details": "pH 4.54, aqueous solution 300 mg/mL active florfenicol"}, "[10]": {"details": "pH 4.95, aqueous solution 300 mg/mL active florfenicol"}, "[11]": {"details": "pH 5.03 adjusted with ethanolamine, 300 mg/mL active florfenicol"}, "[12]": {"details": "pH 5.51 adjusted with ethanolamine, 300 mg/mL active florfenicol"}, "[13]": {"details": "pH 5.53, aqueous solution 300 mg/mL active florfenicol"}}, "data": [{"smiles": "CS(=O)(=O)c1ccc([C@@H](OP(=O)(O)O)[C@@H](CF)NC(=O)C(Cl)Cl)cc1", "note": "[florfenicol phosphate ester]", "values": [{"measurement": "plasma florfenicol concentrations following treatment", "setting": "[1]", "result": "substantial concentrations of florfenicol were detected"}, {"measurement": "plasma florfenicol concentrations following treatment", "setting": "[1]; [7]", "result": "increased rapidly"}, {"measurement": "plasma florfenicol concentrations following treatment", "setting": "[2]", "result": "substantial concentrations of florfenicol were detected"}, {"measurement": "plasma florfenicol concentrations following treatment", "setting": "[2]; [7]", "result": "increased rapidly"}, {"measurement": "solubility", "setting": "physchem; water, thermodynamic from solid", "result": "> 600", "unit": "mg/mL"}, {"measurement": "plasma florfenicol concentrations following treatment", "setting": "[3]", "result": "substantial concentrations of florfenicol were detected"}, {"measurement": "plasma florfenicol concentrations following treatment", "setting": "[3]; [7]", "result": "increased rapidly"}, {"measurement": "stability in aqueous solution versus pH", "setting": "[4]; below pH 4 or at neutral or higher pH ranges", "result": "less stable"}, {"measurement": "stability of aqueous solutions of the prodrug", "setting": "[4]; close to one equivalent of sodium hydroxide or ethanolamine added to concentrated aqueous solution, approximately pH 4.5 to pH 5.5", "result": "Satisfactory stability"}, {"measurement": "effect of ionic strength on aqueous stability", "setting": "[4]; increased ionic strength", "result": "reduces the aqueous stability"}, {"measurement": "% Compound B (cyclic phosphate formed)", "setting": "[4]; [8]", "result": 0.18, "unit": "%"}, {"measurement": "% Compound C (free florfenicol formed)", "setting": "[4]; [8]", "result": 0.92, "unit": "%"}, {"measurement": "% Compound A", "setting": "[4]; [8]", "result": 93.43, "unit": "%"}, {"measurement": "% Compound B (cyclic phosphate formed)", "setting": "[4]; [9]", "result": 0.17, "unit": "%"}, {"measurement": "% Compound C (free florfenicol formed)", "setting": "[4]; [9]", "result": 1.02, "unit": "%"}, {"measurement": "% Compound A", "setting": "[4]; [9]", "result": 94.40, "unit": "%"}, {"measurement": "% Compound B (cyclic phosphate formed)", "setting": "[4]; [10]", "result": 0.37, "unit": "%"}, {"measurement": "% Compound C (free florfenicol formed)", "setting": "[4]; [10]", "result": 1.01, "unit": "%"}, {"measurement": "% Compound A", "setting": "[4]; [10]", "result": 93.38, "unit": "%"}, {"measurement": "% Compound B (cyclic phosphate formed)", "setting": "[4]; [11]", "result": 0.58, "unit": "%"}, {"measurement": "% Compound C (free florfenicol formed)", "setting": "[4]; [11]", "result": 0.86, "unit": "%"}, {"measurement": "% Compound A", "setting": "[4]; [11]", "result": 95.83, "unit": "%"}, {"measurement": "% Compound B (cyclic phosphate formed)", "setting": "[4]; [12]", "result": 1.25, "unit": "%"}, {"measurement": "% Compound C (free florfenicol formed)", "setting": "[4]; [12]", "result": 0.70, "unit": "%"}, {"measurement": "% Compound A", "setting": "[4]; [12]", "result": 93.83, "unit": "%"}, {"measurement": "% Compound B (cyclic phosphate formed)", "setting": "[4]; [13]", "result": 1.41, "unit": "%"}, {"measurement": "% Compound C (free florfenicol formed)", "setting": "[4]; [13]", "result": 0.93, "unit": "%"}, {"measurement": "% Compound A", "setting": "[4]; [13]", "result": 93.06, "unit": "%"}]}, {"smiles": "CS(=O)(=O)c1ccc([C@@H](OC(=O)CCCC(=O)O)[C@@H](CF)NC(=O)C(Cl)Cl)cc1", "note": "[glutarate ester of florfenicol]", "values": [{"measurement": "conversion (hydrolysis) to florfenicol", "setting": "[5]", "result": "about 3%"}, {"measurement": "conversion (hydrolysis) to florfenicol", "setting": "[6]", "result": "approximately 6%"}]}, {"smiles": "CS(=O)(=O)c1ccc([C@@H](OP(=O)([O-])[O-])[C@@H](CF)NC(=O)C(Cl)Cl)cc1.[Na+].[Na+]", "note": "[sodium salt of florfenicol phosphate, [1R, 2S-1-(4-Methanesulfonylphenyl)-2-(2,2-dichloroacetylamino)-3-fluoropropyl]phosphate disodium salt]", "values": [{"measurement": "aqueous solubility (original concentration by HPLC)", "setting": "physchem", "result": "greater than 700 mg/mL"}, {"measurement": "conversion of the prodrug into cyclic diester", "setting": "[4]; heating a solution of the bis sodium salt", "result": "almost quantitative conversion"}]}]}
